Experiment: mn = molality of the nth substance listed, in mol/kg
Conditions: 100 kPa, Liquid; for speed of sound: Frequency=3 MHz, Sing-around technique in a fixed-path interferometer; for mass density: Vibrating tube method

O=C([O-])CC(O)(CC(=O)[O-])C(=O)[O-].[Li+].[Li+].[Li+] [trilithium citrate] + O
Conditions | mass density, 288.15 K [kg/m3] | mass density, 298.15 K [kg/m3] | mass density, 308.15 K [kg/m3] | mass density, 318.15 K [kg/m3] | speed of sound, 288.15 K [m/s] | speed of sound, 298.15 K [m/s] | speed of sound, 308.15 K [m/s] | speed of sound, 318.15 K [m/s]
m1 = 0.2 | 1027.57 | 1025.15 | 1021.94 | 1017.98 | 1509.4 | 1536 | 1556.2 | 1570.5
m1 = 0.4 | 1052.95 | 1050.23 | 1046.82 | 1042.77 | 1548.6 | 1572.7 | 1590.4 | 1602.2
m1 = 0.6 | 1078.48 | 1075.51 | 1071.94 | 1067.78 | 1589.2 | 1610.3 | 1626 | 1636.1
